Data published in paper PMC8002823, “Synthesis and Structure–Activity Relationships of Aristoyagonine Derivatives as Brd4 Bromodomain Inhibitors with X-ray Co-Crystal Research” (Molecules, 2021).

Experiments:
[1] = target: T1, Brd4 bromodomain (Homo sapiens, UniProt O60885); assay: Alpha-screen enzyme assay (bromodomain binding to acetylated histone peptide); details: for IC50: inhibition of bromodomain binding activity, calculated with Prism6;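 on all read-outs here: AlphaScreen proximity readout pairing streptavidin donor beads with anti-GST acceptor beads, with hits checked against bead interference using a TruHit control kit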
T1 construct: glutathione-S-transferase (GST) and His-tagged bromodomain; made in house
Protocol: Bromodomain was prepared as previously described. […] Streptavidin-coated donor beads and anti-GST alpha-screen acceptor beads were added under low-light condition. […] The alpha-screen results were confirmed by using alpha-screen TruHit kits (PerkinElmer, USA).

[2] = Cell cytotoxic assay in Ty82 cells; assay type: cell-based; details: human, Ty82 cells; Ty82 cell cytotoxic activity, 72 h
Protocol: (§1) For the viability experiments, Ty82 cells were seeded in 96-well plates at 30% confluency and exposed to chemicals the next day. After 72 h, WST-1 reagent was added, and absorbance at 450 nm was measured by using a Spectramax spectrophotometer (Molecular Devices, San Jose, CA, USA) in accordance with the manufacturer’s instructions. The CC50 values were calculated by using GraphPad Prism version 5 for Windows. The curves were fitted using a nonlinear regression model with a log (inhibitor) versus response formula.

[3] = tested on: Brd4 bromodomain; set-up: method as in PMID 29928885; details: cited from earlier work
[4] = tested on: c-MYC; assay: Western blot of c-MYC level in NALM6 cells; assay type: cell-based; details: 18 h treatment
Protocol: For immunoblotting, cells were washed in PBS, lysed in 1× sample buffer (50 mmol/L Tris-HCl (pH 6.8), 10% glycerol, 2% SDS, and 3% β-mercaptoethanol), and boiled for 10 min. Lysates were subjected to SDS-PAGE followed by blotting with the indicated antibodies and detection by western blotting substrate ECL reagent (Thermo Fisher Scientific, Waltham, MA, USA). Images were produced using a SensiQ-2000 (Lugen Sci Co., Seoul, KOREA). The following antibodies were obtained from Cell Signaling Technology (Danvers, MA, USA): c-Myc (catalog no. 5605). Tubulin antibody (catalog no. T6199) was purchased from Sigma-Aldrich. HRP-conjugated anti-mouse (catalog no. NCI1430KR), and HRP-conjugated anti-rabbit (catalog no. NCI1460KR) antibodies were obtained from Thermo Scientific.

[5] = tested on: Ty82 cells; assay: Cell cytotoxic assay in Ty82 cells; assay type: cell-based; details: Homo sapiens; Ty82 cell cytotoxic activity, 72 h
Protocol: as §1

IC50 ([1]; alpha-screen assay) [µM]	melting point [°C]	increase in activity compared with 8ba ([1]; Brd4 IC50 ratio) [fold]	Structure (SMILES)	inhibitory activity against Brd4 bromodomain (in words) ([1]; alpha-screen assay)	CC50 at 72 h [2] [µM]	inhibition of binding of Brd4 bromodomain to acetylated histone peptide (in words) [3]	c-MYC level [4]	CC50 [5] [µM]
			COc1ccc2c(c1OC)Oc1c(OC)ccc3c1C(=C2)N(C)C3=O [aristoyagonine]			efficiently inhibited		
0.41	194 to 196	40	COc1ccc2c(c1)C=C1c3c(ccc(OC)c3O2)C(=O)N1C [Compound 8bc, 5,9-Dimethoxy-1-methylbenzo[6,7]oxepino[4,3,2-cd]isoindol-2(1H)-one]				significantly decreased	0.66
0.86	214 to 216		CCOc1ccc2c3c1Oc1ccc(OC)cc1C=C3N(C)C2=O [Compound 8bk, 5-Ethoxy-9-methoxy-1-methylbenzo[6,7]oxepino[4,3,2-cd]isoindol-2(1H)-one]				significantly decreased	0.49

Structure (SMILES)	IC50 ([1]; alpha-screen assay) [µM]	melting point [°C]	increase in activity compared with 8ba ([1]; Brd4 IC50 ratio) [fold]	inhibitory activity against Brd4 bromodomain (in words) ([1]; alpha-screen assay)	CC50 at 72 h [2] [µM]	inhibition of binding of Brd4 bromodomain to acetylated histone peptide (in words) [3]	c-MYC level [4]	CC50 [5] [µM]
CCN(CC)c1ccc2c3c1Oc1ccc(OCC(C)C)cc1C=C3N(C)C2=O [Compound 8ca]	> 32	183 to 185		no inhibitory activity	> 20			
